Drawing on PubChem BioAssay (NCI), this text covers GI50 and TGI for 14 molecules.

Each structure is given as a SMILES string.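 How tested: cells in 96-well plates exposed to compound for 48 hours at five concentrations. Here, GI50 denotes the concentration required for 50% inhibition of growth. The concentration for full growth arrest is given as TGI.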

The first experiment concerns A498 renal. Kind of experiment: NCI-60 cell line screen, 48 h.
Turning to `N#CC(=C1SCS1)[N+](=O)[O-]`, the GI50 is 2.31 µM and the TGI was 12.7 µM.
On to `CC(C)(C)OC(=O)n1cc(CNC(=S)Nc2ccccc2)c2ccccc21`, for which the GI50 was 15.1 µM and the TGI amounted to 31.2 µM.
Take `O=C(NNc1nc2c(F)cccc2n2cccc12)c1cnccn1`: the GI50 is 2.18 µM and the TGI worked out at 10.3 µM.
For `CN=C(N)N/N=C(\c1ccccc1)c1ccc(Br)cc1`, the GI50 is 0.232 µM and the TGI stood at 1.01 µM.
Consider `COc1cc(/C=C\[N+](=O)[O-])ccc1O`, for which the GI50 was 12.3 µM and the TGI is 24.8 µM.
Take `O=C(Nc1cccc(-n2ccc3c(NC(=O)c4ccccc4)nccc32)c1)c1cccc(C(F)(F)F)c1`: the GI50 is 0.02 µM and the TGI came to 0.0772 µM.
As to `C=CC(=O)N[C@H]1C=C(C)c2c(-c3cnc4ccccc4c3)c3c(N)ncnc3n2C1`, the GI50 is 0.351 µM and the TGI came out at 3.99 µM.
For `CNC(=O)c1ccccc1CC1(O)c2ccccc2Oc2ccccc21`, in that order: 4.54 µM and 37.5 µM.
On to `CCOc1ccc(S(=O)(=O)/N=C2\C=C(SCC(=O)O)C(=O)c3ccccc32)cc1`, for which the GI50 was 21.6 µM and the TGI came out at 37 µM.
For `C[C@@H]1CC[C@@H]2[C@@H]1[C@H](OC(=O)/C=C/c1ccccc1)[C@]1(c3ccccc3)C[C@@H](OC(=O)CO)[C@@]2(C)O1`, in that order: 0.189 µM and 0.585 µM.
Turning to `O=C(CSc1nc2ccc([N+](=O)[O-])cc2[nH]1)Nc1ccc(F)c(Cl)c1`, the GI50 is 1.11 µM and the TGI was found to be 3.6 µM.
Regarding `C=C1C(=O)O[C@H]2[C@H]1CC/C(CNC(=O)c1c[nH]c3ccc(F)cc13)=C\CC[C@@]1(C)O[C@@H]21`, the GI50 was 1.99 µM and the TGI is 11.9 µM.
With `Cc1nn(-c2ccc(F)cc2)c2ncnc(Nc3ccc(NC(=O)Nc4ccc(Cl)c(C(F)(F)F)c4)cc3)c12`, the GI50 is 2.6 µM and the TGI was found to be 7.93 µM.
On to `O=C(CCN1CCN(c2cnc3ccccc3n2)CC1)c1csc2ccccc12`, for which the GI50 was 47.4 µM and the TGI is > 100 µM.

The next experiment relates to HT29 colon. Kind of experiment: NCI-60 cell line screen, 48 h.
As for `N#CC(=C1SCS1)[N+](=O)[O-]`, the GI50 is 0.336 µM and the TGI turned out to be 11.2 µM.
For `CC(C)(C)OC(=O)n1cc(CNC(=S)Nc2ccccc2)c2ccccc21`, the GI50 was 22.3 µM and the TGI is > 100 µM.
On to `O=C(NNc1nc2c(F)cccc2n2cccc12)c1cnccn1`, for which the GI50 is 0.604 µM and the TGI was 50.3 µM.
As to `CN=C(N)N/N=C(\c1ccccc1)c1ccc(Br)cc1`, the GI50 was 0.322 µM and the TGI worked out at 1.72 µM.
Consider `COc1cc(/C=C\[N+](=O)[O-])ccc1O`, for which the GI50 is 2.98 µM and the TGI worked out at 10.6 µM.
Turning to `O=C(Nc1cccc(-n2ccc3c(NC(=O)c4ccccc4)nccc32)c1)c1cccc(C(F)(F)F)c1`, the GI50 was 0.0332 µM and the TGI was 0.388 µM.
As to `C=CC(=O)N[C@H]1C=C(C)c2c(-c3cnc4ccccc4c3)c3c(N)ncnc3n2C1`, the GI50 was 11 µM and the TGI was > 100 µM.
On to `CNC(=O)c1ccccc1CC1(O)c2ccccc2Oc2ccccc21`, for which the GI50 is 9.73 µM and the TGI stood at 51.1 µM.
In the case of `CCOc1ccc(S(=O)(=O)/N=C2\C=C(SCC(=O)O)C(=O)c3ccccc32)cc1`, the GI50 was 3.21 µM and the TGI is 13 µM.
For `C[C@@H]1CC[C@@H]2[C@@H]1[C@H](OC(=O)/C=C/c1ccccc1)[C@]1(c3ccccc3)C[C@@H](OC(=O)CO)[C@@]2(C)O1`, in that order: 15.9 µM and 37.8 µM.
The corresponding values for `O=C(CSc1nc2ccc([N+](=O)[O-])cc2[nH]1)Nc1ccc(F)c(Cl)c1` are 3.14 µM and 11.9 µM.
For the molecule `C=C1C(=O)O[C@H]2[C@H]1CC/C(CNC(=O)c1c[nH]c3ccc(F)cc13)=C\CC[C@@]1(C)O[C@@H]21`, the GI50 was 1.19 µM and the TGI was determined as 2.91 µM.
On to `Cc1nn(-c2ccc(F)cc2)c2ncnc(Nc3ccc(NC(=O)Nc4ccc(Cl)c(C(F)(F)F)c4)cc3)c12`, for which the GI50 is 2.76 µM and the TGI is 9.82 µM.
As for `O=C(CCN1CCN(c2cnc3ccccc3n2)CC1)c1csc2ccccc12`, the GI50 was 38.4 µM and the TGI was > 100 µM.

In a further experiment the test system is K-562 leukemia. Description: NCI-60 cell line screen, 48 h.
`N#CC(=C1SCS1)[N+](=O)[O-]`: the GI50 is 0.371 µM and the TGI is > 100 µM.
With `CC(C)(C)OC(=O)n1cc(CNC(=S)Nc2ccccc2)c2ccccc21`, the GI50 was 8.73 µM and the TGI was 70.1 µM.
Consider `O=C(NNc1nc2c(F)cccc2n2cccc12)c1cnccn1`, for which the GI50 is 0.478 µM and the TGI was > 100 µM.
As for `CN=C(N)N/N=C(\c1ccccc1)c1ccc(Br)cc1`, the GI50 was 0.294 µM and the TGI is 6.31 µM.
As for `COc1cc(/C=C\[N+](=O)[O-])ccc1O`, the GI50 was 3.17 µM and the TGI is 10.8 µM.
Turning to `O=C(Nc1cccc(-n2ccc3c(NC(=O)c4ccccc4)nccc32)c1)c1cccc(C(F)(F)F)c1`, the GI50 was 0.0391 µM and the TGI was > 38.2 µM.
Take `C=CC(=O)N[C@H]1C=C(C)c2c(-c3cnc4ccccc4c3)c3c(N)ncnc3n2C1`: the GI50 is 24.8 µM and the TGI is > 100 µM.
The corresponding values for `CNC(=O)c1ccccc1CC1(O)c2ccccc2Oc2ccccc21` are 6.78 µM and > 100 µM.
As for `CCOc1ccc(S(=O)(=O)/N=C2\C=C(SCC(=O)O)C(=O)c3ccccc32)cc1`, the GI50 was 3.35 µM and the TGI was determined as 10.6 µM.
Regarding `C[C@@H]1CC[C@@H]2[C@@H]1[C@H](OC(=O)/C=C/c1ccccc1)[C@]1(c3ccccc3)C[C@@H](OC(=O)CO)[C@@]2(C)O1`, the GI50 was 7.76 µM and the TGI was > 100 µM.
Turning to `O=C(CSc1nc2ccc([N+](=O)[O-])cc2[nH]1)Nc1ccc(F)c(Cl)c1`, the GI50 is 2.44 µM and the TGI is > 42.3 µM.
The corresponding values for `C=C1C(=O)O[C@H]2[C@H]1CC/C(CNC(=O)c1c[nH]c3ccc(F)cc13)=C\CC[C@@]1(C)O[C@@H]21` are 0.856 µM and 6.17 µM.
For `Cc1nn(-c2ccc(F)cc2)c2ncnc(Nc3ccc(NC(=O)Nc4ccc(Cl)c(C(F)(F)F)c4)cc3)c12`, the GI50 was 1.75 µM and the TGI was > 100 µM.
Consider `O=C(CCN1CCN(c2cnc3ccccc3n2)CC1)c1csc2ccccc12`, for which the GI50 is 28.6 µM and the TGI was > 100 µM.

The test system of a further experiment is LOX IMVI melanoma. Kind of experiment: NCI-60 cell line screen, 48 h.
On to `N#CC(=C1SCS1)[N+](=O)[O-]`, for which the GI50 was 0.567 µM and the TGI was 14.7 µM.
The corresponding values for `CC(C)(C)OC(=O)n1cc(CNC(=S)Nc2ccccc2)c2ccccc21` are 11.1 µM and 23 µM.
For `O=C(NNc1nc2c(F)cccc2n2cccc12)c1cnccn1`, the GI50 is 0.3 µM and the TGI is 5.83 µM.
`CN=C(N)N/N=C(\c1ccccc1)c1ccc(Br)cc1`: the GI50 was 0.494 µM and the TGI is 2.97 µM.
In the case of `COc1cc(/C=C\[N+](=O)[O-])ccc1O`, the GI50 was 1.74 µM and the TGI is 3.39 µM.
With `O=C(Nc1cccc(-n2ccc3c(NC(=O)c4ccccc4)nccc32)c1)c1cccc(C(F)(F)F)c1`, the GI50 is 0.0838 µM and the TGI was found to be 2.78 µM.
With `C=CC(=O)N[C@H]1C=C(C)c2c(-c3cnc4ccccc4c3)c3c(N)ncnc3n2C1`, the GI50 is 7.16 µM and the TGI is 23.5 µM.
For `CNC(=O)c1ccccc1CC1(O)c2ccccc2Oc2ccccc21`, in that order: 29.1 µM and > 100 µM.
With `CCOc1ccc(S(=O)(=O)/N=C2\C=C(SCC(=O)O)C(=O)c3ccccc32)cc1`, the GI50 was 2.31 µM and the TGI was found to be 10.2 µM.
For `C[C@@H]1CC[C@@H]2[C@@H]1[C@H](OC(=O)/C=C/c1ccccc1)[C@]1(c3ccccc3)C[C@@H](OC(=O)CO)[C@@]2(C)O1`, the GI50 was 13.9 µM and the TGI was found to be 27.2 µM.
Take `O=C(CSc1nc2ccc([N+](=O)[O-])cc2[nH]1)Nc1ccc(F)c(Cl)c1`: the GI50 is 2.89 µM and the TGI was 14 µM.
For the molecule `C=C1C(=O)O[C@H]2[C@H]1CC/C(CNC(=O)c1c[nH]c3ccc(F)cc13)=C\CC[C@@]1(C)O[C@@H]21`, the GI50 was 0.731 µM and the TGI was 2.14 µM.
As to `Cc1nn(-c2ccc(F)cc2)c2ncnc(Nc3ccc(NC(=O)Nc4ccc(Cl)c(C(F)(F)F)c4)cc3)c12`, the GI50 is 1.96 µM and the TGI turned out to be 4.48 µM.
Regarding `O=C(CCN1CCN(c2cnc3ccccc3n2)CC1)c1csc2ccccc12`, the GI50 was 26 µM and the TGI came out at 70.1 µM.

In another experiment the test system is NCI-H23 lung. Kind of experiment: NCI-60 cell line screen, 48 h.
Regarding `N#CC(=C1SCS1)[N+](=O)[O-]`, the GI50 was 7.96 µM and the TGI stood at 34.8 µM.
For `CC(C)(C)OC(=O)n1cc(CNC(=S)Nc2ccccc2)c2ccccc21`, in that order: 10.7 µM and 24.4 µM.
As to `O=C(NNc1nc2c(F)cccc2n2cccc12)c1cnccn1`, the GI50 is 0.905 µM and the TGI is > 69.8 µM.
`CN=C(N)N/N=C(\c1ccccc1)c1ccc(Br)cc1`: the GI50 is 0.562 µM and the TGI came out at 11.8 µM.
With `COc1cc(/C=C\[N+](=O)[O-])ccc1O`, the GI50 was 3.34 µM and the TGI came to 11.4 µM.
In the case of `O=C(Nc1cccc(-n2ccc3c(NC(=O)c4ccccc4)nccc32)c1)c1cccc(C(F)(F)F)c1`, the GI50 was 0.0685 µM and the TGI was > 46.2 µM.
The corresponding values for `C=CC(=O)N[C@H]1C=C(C)c2c(-c3cnc4ccccc4c3)c3c(N)ncnc3n2C1` are 19.6 µM and 54.5 µM.
Regarding `CNC(=O)c1ccccc1CC1(O)c2ccccc2Oc2ccccc21`, the GI50 is 26 µM and the TGI was > 100 µM.
`CCOc1ccc(S(=O)(=O)/N=C2\C=C(SCC(=O)O)C(=O)c3ccccc32)cc1`: the GI50 was 2.81 µM and the TGI was 14.2 µM.
For `C[C@@H]1CC[C@@H]2[C@@H]1[C@H](OC(=O)/C=C/c1ccccc1)[C@]1(c3ccccc3)C[C@@H](OC(=O)CO)[C@@]2(C)O1`, the GI50 was 15 µM and the TGI worked out at 35.9 µM.
On to `O=C(CSc1nc2ccc([N+](=O)[O-])cc2[nH]1)Nc1ccc(F)c(Cl)c1`, for which the GI50 was 2.05 µM and the TGI was determined as 8.79 µM.
With `C=C1C(=O)O[C@H]2[C@H]1CC/C(CNC(=O)c1c[nH]c3ccc(F)cc13)=C\CC[C@@]1(C)O[C@@H]21`, the GI50 is 1.68 µM and the TGI is 3.8 µM.
For the molecule `Cc1nn(-c2ccc(F)cc2)c2ncnc(Nc3ccc(NC(=O)Nc4ccc(Cl)c(C(F)(F)F)c4)cc3)c12`, the GI50 is 1.91 µM and the TGI is 4.6 µM.
On to `O=C(CCN1CCN(c2cnc3ccccc3n2)CC1)c1csc2ccccc12`, for which the GI50 is > 100 µM and the TGI was > 100 µM.
